From ChEMBL document CHEMBL1131973, “Asymmetric synthesis of novel quaternary alpha-hydroxy-delta-lactam dipeptide surrogates” (Bioorg Med Chem Lett, 1999)

These molecules were tested against Prothrombin (Homo sapiens, UniProt P00734).

| SMILES | Ki [nM] |
| --- | --- |
| N=C(N)N1CCC[C@H](NC(=O)CN2CCC[C@@](N)(Cc3ccccc3)C2=O)C1O (stereo partly drawn) | 1 |
| CCOC(=O)[C@]1(NS(=O)(=O)Cc2ccccc2)CCCN(CC(=O)N[C@H]2CCCN(C(=N)N)C2O)C1=O (stereo partly drawn) | 1 |
| N=C(N)N1CCC[C@H](NC(=O)CN2CCC[C@H](NS(=O)(=O)Cc3ccccc3)C2=O)C1O (stereo partly drawn) | 1 |
